The values below come from ChEMBL document CHEMBL3352376, “Amine substitution of quinazolinones leads to selective nanomolar AChE inhibitors with 'inverted' binding mode” (Bioorg Med Chem, 2014).

Where “and” joins values, the source holds several entries; their conditions need not be identical. Identical values can stand only once. Calls of active or inactive are those of the source. The calls are words filed in the database; no cut-off is given here.

Experiment [1] concerns the target Acetylcholinesterase (Electrophorus electricus, UniProt O42275).
Another experiment concerns the target Cholinesterase (Equus caballus, UniProt P81908).
Experiment [2] addresses T1, Acetylcholinesterase (Homo sapiens, UniProt P22303).
Experiment [3] addresses T1, Acetylcholinesterase. Briefly: Inhibition of human AChE at 100 uM.
Experiment [4] has as its target Cholinesterase (Equus caballus) (UniProt P81908). Briefly: Inhibition of equine serum BChE at 50 uM.
Experiment [5] has as its target Acetylcholinesterase (Electrophorus electricus) (UniProt O42275). Briefly: Inhibition of electric eel AChE at 50 uM.
Another experiment has as its target Histamine H3 receptor (Homo sapiens, UniProt Q9Y5N1). As to the kind of experiment: Inhibition of human H3 receptor.

T1 sequence (P22303 whole entry): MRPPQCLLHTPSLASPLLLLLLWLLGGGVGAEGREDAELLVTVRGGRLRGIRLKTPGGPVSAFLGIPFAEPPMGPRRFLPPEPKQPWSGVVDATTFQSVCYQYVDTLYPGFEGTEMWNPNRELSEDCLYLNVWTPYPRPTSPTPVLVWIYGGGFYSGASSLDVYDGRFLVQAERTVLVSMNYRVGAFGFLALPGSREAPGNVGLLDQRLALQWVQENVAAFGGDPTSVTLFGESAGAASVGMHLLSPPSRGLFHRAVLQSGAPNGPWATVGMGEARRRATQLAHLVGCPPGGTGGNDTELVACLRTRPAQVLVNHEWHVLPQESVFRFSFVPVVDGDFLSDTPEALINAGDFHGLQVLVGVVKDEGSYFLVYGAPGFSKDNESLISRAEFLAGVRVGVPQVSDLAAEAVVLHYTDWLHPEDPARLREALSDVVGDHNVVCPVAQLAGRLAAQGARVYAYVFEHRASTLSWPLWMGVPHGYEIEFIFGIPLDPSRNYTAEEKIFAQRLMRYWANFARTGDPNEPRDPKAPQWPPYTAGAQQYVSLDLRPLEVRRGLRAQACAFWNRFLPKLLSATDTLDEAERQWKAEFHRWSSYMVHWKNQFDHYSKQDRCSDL
Chain of Acetylcholinesterase (Electrophorus electricus, UniProt O42275) (O42275 whole entry): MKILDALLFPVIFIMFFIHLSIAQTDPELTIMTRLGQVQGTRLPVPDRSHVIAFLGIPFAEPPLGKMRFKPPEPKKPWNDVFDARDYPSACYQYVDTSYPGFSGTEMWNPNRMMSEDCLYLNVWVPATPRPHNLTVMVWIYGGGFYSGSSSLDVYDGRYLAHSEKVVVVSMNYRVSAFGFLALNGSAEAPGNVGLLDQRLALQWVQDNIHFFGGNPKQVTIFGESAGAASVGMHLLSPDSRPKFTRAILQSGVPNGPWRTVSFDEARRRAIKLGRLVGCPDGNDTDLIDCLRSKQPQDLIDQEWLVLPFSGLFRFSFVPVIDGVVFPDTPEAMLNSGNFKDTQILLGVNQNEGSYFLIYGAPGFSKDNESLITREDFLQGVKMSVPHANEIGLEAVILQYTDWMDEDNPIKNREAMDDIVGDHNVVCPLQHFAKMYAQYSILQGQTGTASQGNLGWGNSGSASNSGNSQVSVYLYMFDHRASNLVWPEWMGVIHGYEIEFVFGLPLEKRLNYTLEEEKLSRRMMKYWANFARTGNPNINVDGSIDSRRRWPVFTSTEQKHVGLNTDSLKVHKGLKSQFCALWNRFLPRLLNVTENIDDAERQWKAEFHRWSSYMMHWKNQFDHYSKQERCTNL
Chain of Cholinesterase (P81908 whole entry): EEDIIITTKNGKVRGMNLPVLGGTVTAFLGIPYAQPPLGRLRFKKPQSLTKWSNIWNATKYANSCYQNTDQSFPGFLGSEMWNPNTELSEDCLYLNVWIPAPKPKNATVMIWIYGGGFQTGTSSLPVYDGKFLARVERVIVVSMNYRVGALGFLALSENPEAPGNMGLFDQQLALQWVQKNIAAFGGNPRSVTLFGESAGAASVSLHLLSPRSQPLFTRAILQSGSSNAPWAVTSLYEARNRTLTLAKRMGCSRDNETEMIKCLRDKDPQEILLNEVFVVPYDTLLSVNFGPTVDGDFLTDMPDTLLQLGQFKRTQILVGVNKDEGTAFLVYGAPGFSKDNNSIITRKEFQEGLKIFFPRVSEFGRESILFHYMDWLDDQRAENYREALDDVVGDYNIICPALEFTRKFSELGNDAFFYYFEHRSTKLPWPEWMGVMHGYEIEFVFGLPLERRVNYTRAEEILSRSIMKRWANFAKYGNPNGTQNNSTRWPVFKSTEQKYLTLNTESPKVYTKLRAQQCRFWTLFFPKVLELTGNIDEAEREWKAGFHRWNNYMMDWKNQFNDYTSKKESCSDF
Chain of Cholinesterase (Equus caballus) (P81908 whole entry): as above
Chain of Histamine H3 receptor (Q9Y5N1 whole entry): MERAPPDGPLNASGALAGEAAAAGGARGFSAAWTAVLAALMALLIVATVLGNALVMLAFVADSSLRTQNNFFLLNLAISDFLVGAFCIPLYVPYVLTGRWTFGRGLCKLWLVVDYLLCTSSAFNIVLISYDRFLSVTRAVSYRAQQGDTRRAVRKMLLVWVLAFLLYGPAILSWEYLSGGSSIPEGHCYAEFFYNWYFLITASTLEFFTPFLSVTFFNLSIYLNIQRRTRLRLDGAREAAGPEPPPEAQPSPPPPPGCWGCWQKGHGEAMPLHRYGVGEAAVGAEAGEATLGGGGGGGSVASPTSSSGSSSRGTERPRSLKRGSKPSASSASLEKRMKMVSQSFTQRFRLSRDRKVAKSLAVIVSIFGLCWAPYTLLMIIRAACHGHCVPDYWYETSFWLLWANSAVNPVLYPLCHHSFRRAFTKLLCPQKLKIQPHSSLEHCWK
Chain of Acetylcholinesterase (Electrophorus electricus) (O42275 24-633 limits assumed): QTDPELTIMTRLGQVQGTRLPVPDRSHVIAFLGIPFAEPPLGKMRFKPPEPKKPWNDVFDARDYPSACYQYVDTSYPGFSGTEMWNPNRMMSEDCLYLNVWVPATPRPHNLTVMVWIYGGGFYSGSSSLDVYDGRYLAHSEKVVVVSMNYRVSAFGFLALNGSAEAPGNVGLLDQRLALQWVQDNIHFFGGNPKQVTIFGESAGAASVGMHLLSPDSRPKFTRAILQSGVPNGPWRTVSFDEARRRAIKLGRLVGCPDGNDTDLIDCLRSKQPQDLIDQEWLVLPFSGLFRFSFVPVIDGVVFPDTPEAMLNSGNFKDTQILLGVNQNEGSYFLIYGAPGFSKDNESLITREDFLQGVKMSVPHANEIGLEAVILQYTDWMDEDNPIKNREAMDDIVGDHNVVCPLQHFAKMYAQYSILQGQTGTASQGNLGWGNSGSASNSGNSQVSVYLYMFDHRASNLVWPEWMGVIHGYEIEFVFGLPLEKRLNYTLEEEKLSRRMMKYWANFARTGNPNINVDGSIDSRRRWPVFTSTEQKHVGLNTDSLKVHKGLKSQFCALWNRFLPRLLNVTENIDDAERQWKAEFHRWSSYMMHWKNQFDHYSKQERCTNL

With `O=c1c2cc(OCCCN3CCCC3)ccc2nc2n1CCCCC2`, the IC50 at Acetylcholinesterase [1] was found to be 295 nM; on Cholinesterase, 12200 nM.
Take `O=c1c2cc(OCCCn3ccnc3)ccc2nc2n1CCCc1ccccc1-2`: the IC50 against Acetylcholinesterase [1] was determined as 10300 nM; against Cholinesterase it was 52000 nM; against Acetylcholinesterase [2] it was 56500 nM.
As for `O=c1c2cc(OCCCn3ccnc3)ccc2nc2n1CCc1ccccc1-2`, the IC50 at Acetylcholinesterase [1] was determined as 2440 nM; against Cholinesterase, 8680 nM.
For the molecule `CCN(CC)CCCOc1ccc2nc3n(c(=O)c2c1)CCCCC3`, the figures for the IC50 at Acetylcholinesterase [1], at Cholinesterase and against Acetylcholinesterase [2] were 50.6 nM, 10800 nM and 12100 nM, respectively.
Consider `O=c1c2cc(OCCCN3CCCCC3)ccc2nc2n1CCC2`, for which the IC50 on Acetylcholinesterase [1] is 69.2 nM; at Cholinesterase it was 122000 nM; on Acetylcholinesterase [2] it was 1100 nM.
As to `O=c1c2cc(OCCCN3CCCCC3)ccc2nc2n1CCCc1ccccc1-2`, the IC50 at Acetylcholinesterase [1] came to 57.1 nM; against Cholinesterase, 2670 nM; at Acetylcholinesterase [2], 535 nM.
Regarding `O=c1c2cc(OCCCN3CCc4ccccc4C3)ccc2nc2n1CCCc1ccccc1-2`, the IC50 came out at 1190 nM against Acetylcholinesterase [1] and 1840 nM on Cholinesterase.
As for `O=c1c2cc(OCCCN3CCCCC3)ccc2nc2n1Cc1ccccc1-2`, the IC50 against Acetylcholinesterase [1] was 6.9 nM; on Acetylcholinesterase [2] it was 143 nM and 142 nM.
In the case of `O=c1c2cc(OCCCN3CCc4ccccc4C3)ccc2nc2n1CCc1ccccc1-2`, the IC50 against Acetylcholinesterase [1] stood at 625 nM; on Cholinesterase it was 1830 nM.
Turning to `O=c1c2cc(OCCCN3CCCCCC3)ccc2nc2n1CCC2`, the IC50 against Acetylcholinesterase [1] was found to be 50.2 nM; against Cholinesterase it was 5220 nM.
On to `CCN(CC)CCCOc1ccc2nc3n(c(=O)c2c1)CCc1ccccc1-3`, for which the IC50 on Acetylcholinesterase [1] is 47.5 nM; on Cholinesterase, 2160 nM; against Acetylcholinesterase [2], 669 nM.
Consider `O=c1c2cc(OCCCN3CCc4ccccc4C3)ccc2nc2n1CCCC2`, for which the IC50 against Acetylcholinesterase [1] is 723 nM; against Cholinesterase, 5490 nM.
For `O=c1c2cc(OCCCN3CCCCCC3)ccc2nc2n1CCCCC2`, in that order: 39.2 nM and 1800 nM.
With `O=c1c2cc(OCCCn3ccnc3)ccc2nc2n1Cc1ccccc1-2`, the results for the IC50 against Acetylcholinesterase [1] and against Cholinesterase were 454 nM and 9110 nM, respectively.
On the same counts, the results for `O=c1c2cc(OCCCn3ccnc3)ccc2nc2n1CCC2` are 1900 nM and 14600 nM.
For the molecule `O=c1c2cc(OCCCN3CCCCCC3)ccc2nc2n1CCCC2`, the IC50 was 58.5 nM on Acetylcholinesterase [1]; 1770 nM and 2670 nM against Cholinesterase.
Turning to `O=c1c2cc(OCCCCCCCCCN3CCCCC3)ccc2nc2n1CCC2`, the results for the IC50 on Acetylcholinesterase [1] and against Cholinesterase were 390 nM and 8600 nM, respectively.
`O=c1c2cc(OCCCC3CCCCC3)ccc2nc2n1Cc1ccccc1-2`: the inhibition was determined as 35% against Acetylcholinesterase [3] and 34% in experiment [5]. In experiment [4], the inhibition result was “inactive”.
In turn, `c1cc2c(cc1OCCCN1CCCCC1)CN1CCCC1=N2` yielded a Ki on Histamine H3 receptor of 76.2 nM. The IC50 against Acetylcholinesterase [1] was found to be 66.5 nM; against Acetylcholinesterase [2], 33.9 nM.
In the case of `O=c1c2cc(OCCCn3ccnc3)ccc2nc2n1CCCCC2`, the IC50 against Acetylcholinesterase [1] worked out at 3950 nM; against Cholinesterase it was 59800 nM.
On the same counts, the results for `O=c1c2cc(OCCCN3CCCC3)ccc2nc2n1CCCC2` are 210 nM and 16100 nM.
For `O=c1c2cc(OCCCN3CCCCC3)ccc2nc2n1CCc1ccccc1-2`, the IC50 against Acetylcholinesterase [1] was 5.5 nM; against Cholinesterase, 955 nM; against Acetylcholinesterase [2], 217 nM and 216 nM.
Take `CCN(CC)CCCOc1ccc2nc3n(c(=O)c2c1)CCCC3`: the IC50 at Acetylcholinesterase [1] came to 43 nM; at Cholinesterase, 9140 nM; against Acetylcholinesterase [2] it was 1500 nM.
For `O=c1c2cc(OCCCN3CCCCC3)ccc2nc2n1CCCC2`, in that order: 33.3 nM, 6550 nM and 225 nM.
For `CCN(CC)CCCOc1ccc2nc3n(c(=O)c2c1)Cc1ccccc1-3`, in that order: 11 nM, 1880 nM and 200 nM.
For `O=c1c2cc(OCCCN3CCc4ccccc4C3)ccc2nc2n1CCC2`, the values for the IC50 on Acetylcholinesterase [1] and against Cholinesterase were 868 nM and 776 nM, respectively.
For `O=c1c2cc(OCCCN3CCCCCC3)ccc2nc2n1CCCc1ccccc1-2`, in that order: 53.4 nM and 865 nM.
As for `O=c1c2cc(OCCCN3CCc4ccccc4C3)ccc2nc2n1Cc1ccccc1-2`, the IC50 against Acetylcholinesterase [1] was 227 nM; against Cholinesterase, 1730 nM.
On the same counts, the results for `O=c1c2cc(OCCCN3CCCCCC3)ccc2nc2n1Cc1ccccc1-2` are 5 nM and 1870 nM.
Turning to `O=c1c2cc(OCCCN3CCCC3)ccc2nc2n1CCC2`, the IC50 was determined as 50 nM on Acetylcholinesterase [1] and 10600 nM against Cholinesterase.
In the case of `O=c1c2cc(OCCCN3CCCCC3)ccc2nc2n1CCCCC2`, the IC50 at Acetylcholinesterase [1] came out at 43 nM; against Cholinesterase, 12700 nM; against Acetylcholinesterase [2] it was 820 nM.
With `O=c1c2cc(OCCCN3CCc4ccccc4C3)ccc2nc2n1CCCCC2`, the IC50 is 653 nM against Acetylcholinesterase [1] and 3030 nM on Cholinesterase.
Take `CCN(CC)CCCOc1ccc2nc3n(c(=O)c2c1)CCC3`: the IC50 is 101 nM at Acetylcholinesterase [1], 829 nM at Cholinesterase and 1200 nM against Acetylcholinesterase [2].
With `O=c1c2cc(OCCCN3CCCC3)ccc2nc2n1Cc1ccccc1-2`, the values for the IC50 against Acetylcholinesterase [1] and on Cholinesterase were 16.2 nM and 2400 nM, respectively.
Turning to `O=c1c2cc(OCCCN3CCCC3)ccc2nc2n1CCCc1ccccc1-2`, the IC50 at Acetylcholinesterase [1] is 529 nM; against Cholinesterase it was 3610 nM.
On to `O=c1c2cc(OCCCn3ccnc3)ccc2nc2n1CCCC2`, for which the IC50 on Acetylcholinesterase [1] is 4240 nM; against Cholinesterase, 50000 nM and 59000 nM.
`O=c1c2cc(OCCCN3CCCC3)ccc2nc2n1CCc1ccccc1-2` had an IC50 at Acetylcholinesterase [1] of 91.1 nM.
For the molecule `CCN(CC)CCCOc1ccc2nc3n(c(=O)c2c1)CCCc1ccccc1-3`, the results for the IC50 against Acetylcholinesterase [1], at Cholinesterase and on Acetylcholinesterase [2] were 72.1 nM, 5100 nM and 4200 nM, respectively.
As to `O=c1c2cc(OCCCN3CCCCCC3)ccc2nc2n1CCc1ccccc1-2`, the figures for the IC50 on Acetylcholinesterase [1] and on Cholinesterase were 13 nM and 584 nM, respectively.

For orientation: IC50 means the concentration that inhibits the measured activity by half. Lower therefore signals higher potency. The term inhibition denotes the relative decrease from the control value, in per cent. In general, Ki refers to the equilibrium dissociation constant of an inhibitor or competing ligand from its target. A high value points to a looser hold on the target.
